IC50 and microsomal CLint data for 29 compounds are collected here from ChEMBL document CHEMBL1152225, “Optimization of a series of potent and selective ketone histone deacetylase inhibitors” (Bioorg Med Chem Lett, 2008).

One series has as its system HeLa. Briefly: Antiproliferative activity against human HeLa cells after 72 hrs by celltiter-blue viability assay. The class given is functional, cell-based. On the technique in general: Resazurin is reduced to fluorescent resorufin, in cell work by metabolically active cells.
The target in a further series is Histone deacetylase 1 (Homo sapiens, UniProt Q13547).
Series [1] can be described thus: Metabolic stability in rat liver microsomes assessed as intrinsic clearance. Type of series: ADME, Microsome. (Liver microsomes are a subcellular fraction often used to study metabolism.)

Histone deacetylase 1, sequence (Q13547 whole entry): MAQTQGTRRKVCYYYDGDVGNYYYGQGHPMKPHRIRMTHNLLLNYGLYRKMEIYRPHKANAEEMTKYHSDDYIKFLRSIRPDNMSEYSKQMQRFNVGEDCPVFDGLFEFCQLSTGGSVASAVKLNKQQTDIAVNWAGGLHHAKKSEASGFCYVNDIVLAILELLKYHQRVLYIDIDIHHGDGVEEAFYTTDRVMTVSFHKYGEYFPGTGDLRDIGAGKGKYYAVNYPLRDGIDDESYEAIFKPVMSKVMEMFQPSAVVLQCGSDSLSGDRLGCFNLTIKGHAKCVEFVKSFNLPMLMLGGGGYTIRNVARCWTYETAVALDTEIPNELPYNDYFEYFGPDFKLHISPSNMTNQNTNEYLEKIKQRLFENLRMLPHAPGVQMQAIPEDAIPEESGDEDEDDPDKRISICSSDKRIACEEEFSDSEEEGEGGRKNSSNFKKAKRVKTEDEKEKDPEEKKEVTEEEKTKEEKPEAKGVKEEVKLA
Description for Histone deacetylase 1: Inhibition of human recombinant C-terminally flag tagged HDAC1

The IC50 is the concentration that inhibits the measured activity by half. A lower IC50 goes with inhibition by little substance. Take `CC(=O)CCCCC[C@H](NC(=O)C1CCN(C)CC1)c1ncc(-c2csc3ccccc23)[nH]1`: the IC50 stood at 1.3 µM in the series with HeLa and 0.18 µM on Histone deacetylase 1.

With `CC(=O)CCCCC[C@H](NC(=O)c1cncs1)c1ncc(-c2ccccc2)[nH]1`, the half-inhibitory concentration (IC50) was 0.53 µM with HeLa and 0.14 µM at Histone deacetylase 1.

As for `CC(=O)CCCCC[C@H](NS(=O)(=O)c1cccc(C#N)c1)c1ncc(-c2ccccc2)[nH]1`, the figures for the IC50 with HeLa and against Histone deacetylase 1 were 1.1 µM and 0.11 µM, respectively.

For `COc1ccc(S(=O)(=O)N[C@@H](CCCCCC(C)=O)c2ncc(-c3ccccc3)[nH]2)cc1`, the half-maximal inhibitory concentration (IC50) turned out to be 1.4 µM in the series on HeLa and 0.25 µM against Histone deacetylase 1.

On to `CC(=O)CCCCC[C@H](NC(=O)c1ccc2c(c1)OCCO2)c1ncc(-c2ccccc2)[nH]1`, for which the IC50 in the series with HeLa came out at 1.1 µM; at Histone deacetylase 1, 0.3 µM.

In general, microsomal CLint refers to the capacity of the preparation to metabolise the compound, expressed as a volume cleared per time. Consider `CC(=O)CCCCC[C@H](NC(=O)C1CCN(C)CC1)c1ncc(-c2ccc(-c3ccccc3)cc2)[nH]1`, for which the IC50 stood at 0.39 µM with HeLa and 0.05 µM against Histone deacetylase 1. Besides, the microsomal CLint in series [1] stood at 170 µL/min/mg.

Consider `CC(=O)CCCCC[C@H](NC(=O)C1CCN(C)CC1)c1nc(C)c(-c2ccccc2)[nH]1`, for which the half-inhibitory concentration (IC50) in the series on HeLa is 14.7 µM; on Histone deacetylase 1 it was over 1.5 µM.

As to `CC(=O)CCCCC[C@H](NC(=O)C1CCN(C)CC1)c1ncc(-c2ccc(Br)cc2)[nH]1`, the values for the IC50 with HeLa and at Histone deacetylase 1 were 0.55 µM and 0.1 µM, respectively. In addition, the microsomal CLint in series [1] was over 300 µL/min/mg.

Consider `CC(=O)CCCCC[C@H](NC(=O)C1CCN(C)CC1)c1ncc(-c2cccc(C#N)c2)[nH]1`, for which the half-inhibitory concentration (IC50) in the series on HeLa is 1.54 µM; at Histone deacetylase 1 it was 0.48 µM.

Turning to `CC(=O)CCCCC[C@H](NC(=O)CCN1CCCCC1)c1ncc(-c2ccccc2)[nH]1`, the IC50 with HeLa worked out at 1.3 µM; against Histone deacetylase 1, 0.19 µM. In addition, the microsomal CLint in series [1] is over 300 µL/min/mg.

As for `CC(=O)CCCCC[C@H](NS(=O)(=O)c1ccc(C#N)cc1)c1ncc(-c2ccccc2)[nH]1`, the 50% inhibitory concentration (IC50) with HeLa was 1.2 µM; on Histone deacetylase 1, 0.18 µM.

Take `CC(=O)CCCCC[C@H](NC(=O)c1cccc(C#N)c1)c1ncc(-c2ccccc2)[nH]1`: the results for the IC50 in the series on HeLa and against Histone deacetylase 1 were 1.1 µM and 0.16 µM, respectively.

As to `CC(=O)CCCCC[C@H](NC(=O)CN1CCN(C)CC1)c1ncc(-c2ccccc2)[nH]1`, the IC50 is 2 µM in the series with HeLa and 0.5 µM against Histone deacetylase 1. In series [1], the microsomal CLint came out at 64 µL/min/mg.

For the compound `CC(=O)CCCCC[C@H](NS(=O)(=O)c1cccc([N+](=O)[O-])c1)c1ncc(-c2ccccc2)[nH]1`, the IC50 is 1.3 µM in the series with HeLa and 0.055 µM at Histone deacetylase 1.

For `CC(=O)CCCCC[C@H](NC(=O)C1CCCCN1C)c1ncc(-c2ccccc2)[nH]1` (stereo not given in full), the values for the half-inhibitory concentration (IC50) in the series with HeLa and on Histone deacetylase 1 were 2.7 µM and 0.71 µM, respectively. Further, the intrinsic clearance (microsomal CLint) in series [1] is over 300 µL/min/mg.

Turning to `CC(=O)CCCCC[C@H](NS(=O)(=O)c1ccccc1C#N)c1ncc(-c2ccccc2)[nH]1`, the IC50 in the series on HeLa is 7.3 µM; on Histone deacetylase 1 it was 0.27 µM.

In the case of `CC(=O)CCCCC[C@H](NC(=O)C1CCN(C)CC1)c1ncc(-c2cccc(Cl)c2)[nH]1`, the IC50 was found to be 0.4 µM in the series with HeLa and 0.09 µM against Histone deacetylase 1.

Take `CC(=O)CCCCC[C@H](NC(=O)C1CCN(C)CC1)c1ncc(-c2ccc(Cl)cc2)[nH]1`: the half-inhibitory concentration (IC50) in the series on HeLa is 0.68 µM; at Histone deacetylase 1, 0.075 µM. Besides, the intrinsic metabolic clearance (microsomal CLint) in series [1] is 246 µL/min/mg.

As for `CC(=O)CCCCC[C@H](NS(=O)(=O)c1ccc([N+](=O)[O-])c(F)c1)c1ncc(-c2ccccc2)[nH]1`, the results for the IC50 in the series on HeLa and against Histone deacetylase 1 were 1 µM and 0.13 µM, respectively.

For the compound `CC(=O)CCCCC[C@H](NC(=O)C1CCN(C)CC1)c1ncc(-c2ccccc2Cl)[nH]1`, the IC50 in the series with HeLa worked out at 1.3 µM; on Histone deacetylase 1 it was 0.18 µM.

Regarding `CC(=O)CCCCC[C@H](NC(=O)C1CCN(C)CC1)c1ncc(C(C)(C)C)[nH]1`, the half-inhibitory concentration (IC50) in the series on HeLa was over 25 µM; against Histone deacetylase 1, over 5 µM.

As for `CC(=O)CCCCC[C@H](NC(=O)C1CCN(C)CC1)c1ncc(-c2ccccc2)[nH]1`, the 50% inhibitory concentration (IC50) amounted to 0.98 µM with HeLa and 0.25 µM against Histone deacetylase 1. Besides, in series [1], the microsomal CLint was determined as 68 µL/min/mg.

Regarding `CC(=O)CCCCC[C@H](NC(=O)C1CCN(C)CC1)c1ncc(-c2ccc(F)cc2)[nH]1`, the 50% inhibitory concentration (IC50) in the series on HeLa amounted to 2.2 µM; at Histone deacetylase 1 it was 0.38 µM. Also, the intrinsic metabolic clearance (microsomal CLint) in series [1] turned out to be 99 µL/min/mg.

As for `CC(=O)CCCCC[C@H](NC(=O)C1CCN(C)CC1)c1ncc(-c2ccc(C#N)cc2)[nH]1`, the concentration for half-maximal inhibition (IC50) with HeLa turned out to be 1.5 µM; against Histone deacetylase 1, 0.12 µM. Also, in series [1], the microsomal CLint was determined as 330 µL/min/mg.

On to `CC(=O)CCCCC[C@H](NC(=O)C1CCN(C)CC1)c1ncc(-c2ccsc2)[nH]1`, for which the figures for the IC50 in the series on HeLa and against Histone deacetylase 1 were 3.2 µM and 0.24 µM, respectively.

In the case of `CC(=O)CCCCC[C@H](NC(=O)C1CCN(C)CC1)c1ncc(-c2ccccn2)[nH]1`, the 50% inhibitory concentration (IC50) with HeLa was 9.7 µM; against Histone deacetylase 1, over 0.5 µM.

Consider `CC(=O)CCCCC[C@H](NC(=O)C1CCCN(C)C1)c1ncc(-c2ccccc2)[nH]1` (stereo not given in full), for which the IC50 in the series with HeLa came out at 0.4 µM; on Histone deacetylase 1, 0.22 µM. Moreover, the intrinsic clearance (microsomal CLint) in series [1] came out at 154 µL/min/mg.

In the case of `CC(=O)CCCCC[C@H](NC(=O)C1CCN(C)C1)c1ncc(-c2ccccc2)[nH]1` (stereo not given in full), the 50% inhibitory concentration (IC50) in the series on HeLa was determined as 1.1 µM; at Histone deacetylase 1 it was 0.28 µM. In series [1], the intrinsic metabolic clearance (microsomal CLint) was determined as 501 µL/min/mg.

In the case of `CC(=O)CCCCC[C@H](NC(=O)CCN1CC2CCC1C2)c1ncc(-c2ccccc2)[nH]1` (stereo not given in full), the IC50 is 1.7 µM with HeLa and 0.22 µM against Histone deacetylase 1. In addition, the microsomal CLint in series [1] came out at 143 µL/min/mg.
